Results: US9637491B2, “Pyrazolo[4,3-D]pyrimidines as kinase inhibitors” (Origenis GmbH, priority 2012, dated 2017)

Biological target: T1, SYK kinase (Homo sapiens, UniProt P43405)
T1 construct: purchased Invitrogen, Carlsbad
Assay: SYK assay (OMNIA Kinase Assay, Invitrogen)
Type: biochemical
Conditions: SYK Activities; 1 mM ATP, 10 μM Omnia Peptide Substrate Tyr 7, 30° C.
Outline: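 Continuous-read fluorescence kinase assay: SOX-labelled Tyr 7 peptide (10 μM) with 1 mM ATP and 0.2 mM DTT, 30° C, reaction started by adding SYK. Fluorescence (ex 360/em 485 nm) read every 30 s for 30 min. IC50 from sigmoidal fit of reaction velocity versus inhibitor concentration.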

Structure (SMILES): COCCCn1cc(Nc2nc(-c3cccs3)nc3cn[nH]c23)cn1 [Example 429, N-(1-(3-methoxypropyl)-1H-pyrazol-4-yl)-5-(thiophen-2-yl)-1H-pyrazolo[4,3-d]pyrimidin-7-amine]
- IC50: 10 to 100 nM

Structure (SMILES): c1csc(-c2nc(Nc3cnn(C4CCOCC4)c3)c3[nH]ncc3n2)c1 [Example 430, N-(1-(tetrahydro-2H-pyran-4-yl)-1H-pyrazol-4-yl)-5-(thiophen-2-yl)-1H-pyrazolo[4,3-d]pyrimidin-7-amine]
- IC50: 10 to 100 nM

Structure (SMILES): CC(C)n1cc(Nc2nc(-c3cccs3)nc3cn[nH]c23)cn1 [Example 431, N-(1-isopropyl-1H-pyrazol-4-yl)-5-(thiophen-2-yl)-1H-pyrazolo[4,3-d]pyrimidin-7-amine]
- IC50: 10 to 100 nM

Structure (SMILES): CC(C)Cn1cc(Nc2nc(-c3cccs3)nc3cn[nH]c23)cn1 [Example 432, N-(1-isobutyl-1H-pyrazol-4-yl)-5-(thiophen-2-yl)-1H-pyrazolo[4,3-d]pyrimidin-7-amine]
- IC50: 10 to 100 nM

Structure (SMILES): CN1CCC(n2cc(Nc3nc(-c4cccs4)nc4cn[nH]c34)cn2)CC1 [Example 433, N-(1-(1-methylpiperidin-4-yl)-1H-pyrazol-4-yl)-5-(thiophen-2-yl)-1H-pyrazolo[4,3-d]pyrimidin-7-amine]
- IC50: < 10 nM

Structure (SMILES): COCCCn1cc(Nc2nc(-c3cnn(C)c3)nc3cn[nH]c23)cn1 [Example 436, N-(1-(3-methoxypropyl)-1H-pyrazol-4-yl)-5-(1-methyl-1H-pyrazol-4-yl)-1H-pyrazolo[4,3-d]pyrimidin-7-amine]
- IC50: 100 to 1000 nM

Structure (SMILES): CC(C)Cn1cc(Nc2nc(-c3cnn(C)c3)nc3cn[nH]c23)cn1 [Example 437, N-(1-isobutyl-1H-pyrazol-4-yl)-5-(1-methyl-1H-pyrazol-4-yl)-1H-pyrazolo[4,3-d]pyrimidin-7-amine]
- IC50: 10 to 100 nM

Structure (SMILES): Fc1cccc(F)c1-c1nc(Nc2cnn(C3CCOCC3)c2)c2[nH]ncc2n1 [Example 439, 5-(2,6-difluorophenyl)-N-(1-(tetrahydro-2H-pyran-4-yl)-1H-pyrazol-4-yl)-1H-pyrazolo[4,3-d]pyrimidin-7-amine]
- IC50: 100 to 1000 nM

Structure (SMILES): CC(C)Cn1cc(Nc2nc(-c3c(F)cccc3F)nc3cn[nH]c23)cn1 [Example 440, 5-(2,6-difluorophenyl)-N-(1-isobutyl-1H-pyrazol-4-yl)-1H-pyrazolo[4,3-d]pyrimidin-7-amine]
- IC50: 100 to 1000 nM

Structure (SMILES): OCCN1CCN(c2ccc(Nc3nc(-c4ccoc4)nc4cn[nH]c34)cc2)CC1 [Example 442, 2-(4-(4-((5-(furan-3-yl)-1H-pyrazolo[4,3-d]pyrimidin-7-yl)amino)phenyl)piperazin-1-yl)ethan-1-ol]
- IC50: 10 to 100 nM

Structure (SMILES): OC1CCN(c2ccc(Nc3nc(-c4ccoc4)nc4cn[nH]c34)cc2)CC1 [Example 443, 1-(4-((5-(furan-3-yl)-1H-pyrazolo[4,3-d]pyrimidin-7-yl)amino)phenyl)piperidin-4-ol]
- IC50: 10 to 100 nM

Structure (SMILES): OCCn1cc(Nc2nc(-c3nc4ccccc4o3)nc3cn[nH]c23)cn1 [Example 444, 2-(4-((5-(benzo[d]oxazol-2-yl)-1H-pyrazolo[4,3-d]pyrimidin-7-yl)amino)-1H-pyrazol-1-yl)ethan-1-ol]
- IC50: 100 to 1000 nM

Structure (SMILES): CN1CCC(n2cc(Nc3nc(-c4nc5ccccc5o4)nc4cn[nH]c34)cn2)CC1 [Example 445, 5-(benzo[d]oxazol-2-yl)-N-(1-(1-methylpiperidin-4-yl)-1H-pyrazol-4-yl)-1H-pyrazolo[4,3-d]pyrimidin-7-amine]
- IC50: 10 to 100 nM

Structure (SMILES): c1ccc2oc(-c3nc(Nc4cnn(C5CCOCC5)c4)c4[nH]ncc4n3)nc2c1 [Example 446, 5-(benzo[d]oxazol-2-yl)-N-(1-(tetrahydro-2H-pyran-4-yl)-1H-pyrazol-4-yl)-1H-pyrazolo[4,3-d]pyrimidin-7-amine]
- IC50: 10 to 100 nM

Structure (SMILES): c1nn(C2CCNC2)cc1Nc1nc(-c2ccc3cn[nH]c3c2)nc2cn[nH]c12 (stereo not drawn) [Example 447, 5-(1H-indazol-6-yl)-N-(1-(pyrrolidin-3-yl)-1H-pyrazol-4-yl)-1H-pyrazolo[4,3-d]pyrimidin-7-amine]
- IC50: < 10 nM

Structure (SMILES): COCC(COC)n1cc(Nc2nc(-c3ccc4cn[nH]c4c3)nc3cn[nH]c23)cn1 [Example 448, N-(1-(1,3-dimethoxypropan-2-yl)-1H-pyrazol-4-yl)-5-(1H-indazol-6-yl)-1H-pyrazolo[4,3-d]pyrimidin-7-amine]
- IC50: 10 to 100 nM

Structure (SMILES): CC(C)(O)Cn1cc(Nc2nc(-c3ccc4cn[nH]c4c3)nc3cn[nH]c23)cn1 [Example 449, 1-(4-((5-(1H-indazol-6-yl)-1H-pyrazolo[4,3-d]pyrimidin-7-yl)amino)-1H-pyrazol-1-yl)-2-methylpropan-2-ol]
- IC50: 10 to 100 nM

Structure (SMILES): OC1CCN(c2ccc(Nc3nc(-c4ccco4)nc4cn[nH]c34)cc2)CC1 [Example 450, 1-(4-((5-(furan-2-yl)-1H-pyrazolo[4,3-d]pyrimidin-7-yl)amino)phenyl)piperidin-4-ol]
- IC50: 10 to 100 nM

Structure (SMILES): CC(C)(O)Cn1cc(Nc2nc(-c3ccco3)nc3cn[nH]c23)cn1 [Example 451, 1-(4-((5-(furan-2-yl)-1H-pyrazolo[4,3-d]pyrimidin-7-yl)amino)-1H-pyrazol-1-yl)-2-methylpropan-2-ol]
- IC50: 10 to 100 nM

Structure (SMILES): CN(C)C(=O)Cn1cc(Nc2nc(-c3ccco3)nc3cn[nH]c23)cn1 [Example 452, 2-(4-((5-(furan-2-yl)-1H-pyrazolo[4,3-d]pyrimidin-7-yl)amino)-1H-pyrazol-1-yl)-N,N-dimethylacetamide]
- IC50: 100 to 1000 nM

Structure (SMILES): CC(C)(C)OC(=O)N1CCC(n2cc(Nc3nc(-c4ccco4)nc4cn[nH]c34)cn2)C1 (stereo not drawn) [Example 453, tert-butyl 3-(4-((5-(furan-2-yl)-1H-pyrazolo[4,3-d]pyrimidin-7-yl)amino)-1H-pyrazol-1-yl)pyrrolidine-1-carboxylate]
- IC50: 100 to 1000 nM

Structure (SMILES): COCC(COC)n1cc(Nc2nc(-c3ccco3)nc3cn[nH]c23)cn1 [Example 455, N-(1-(1,3-dimethoxypropan-2-yl)-1H-pyrazol-4-yl)-5-(furan-2-yl)-1H-pyrazolo[4,3-d]pyrimidin-7-amine]
- IC50: 100 to 1000 nM

Structure (SMILES): COCCn1cc(Nc2nc(-c3nc4ccccc4s3)nc3cn[nH]c23)cn1 [Example 456, 5-(benzo[d]thiazol-2-yl)-N-(1-(2-methoxyethyl)-1H-pyrazol-4-yl)-1H-pyrazolo[4,3-d]pyrimidin-7-amine]
- IC50: < 10 nM

Structure (SMILES): CC(=O)N1CCC(n2cc(Nc3nc(-c4nc5ccccc5s4)nc4cn[nH]c34)cn2)CC1 [Example 458, 1-(4-(4-((5-(benzo[d]thiazol-2-yl)-1H-pyrazolo[4,3-d]pyrimidin-7-yl)amino)-1H-pyrazol-1-yl)piperidin-1-yl)ethan-1-one]
- IC50: < 10 nM

Structure (SMILES): CN1CCC(n2cc(Nc3nc(-c4nc5ccccc5s4)nc4cn[nH]c34)cn2)CC1 [Example 459, 5-(benzo[d]thiazol-2-yl)-N-(1-(1-methylpiperidin-4-yl)-1H-pyrazol-4-yl)-1H-pyrazolo[4,3-d]pyrimidin-7-amine]
- IC50: 10 to 100 nM

Structure (SMILES): c1ccc(Cn2cc(-c3nc(Nc4ccc(N5CCOCC5)cc4)c4[nH]ncc4n3)cn2)cc1 [Example 460, 5-(1-benzyl-1H-pyrazol-4-yl)-N-(4-morpholinophenyl)-1H-pyrazolo[4,3-d]pyrimidin-7-amine]
- IC50: 10 to 100 nM

Structure (SMILES): CN(C)C(=O)Cn1cc(Nc2nc(C3CCC3)nc3cn[nH]c23)cn1 [Example 461, 2-(4-((5-cyclobutyl-1H-pyrazolo[4,3-d]pyrimidin-7-yl)amino)-1H-pyrazol-1-yl)-N,N-dimethylacetamide]
- IC50: 100 to 1000 nM

Structure (SMILES): c1nn(C2CCNC2)cc1Nc1nc(C2CCC2)nc2cn[nH]c12 (stereo not drawn) [Example 462, 5-cyclobutyl-N-(1-(pyrrolidin-3-yl)-1H-pyrazol-4-yl)-1H-pyrazolo[4,3-d]pyrimidin-7-amine]
- IC50: < 10 nM

Structure (SMILES): COCC(COC)n1cc(Nc2nc(C3CCC3)nc3cn[nH]c23)cn1 [Example 463, 5-cyclobutyl-N-(1-(1,3-dimethoxypropan-2-yl)-1H-pyrazol-4-yl)-1H-pyrazolo[4,3-d]pyrimidin-7-amine]
- IC50: 100 to 1000 nM

Structure (SMILES): c1cncc(-c2cccc(-c3nc(Nc4cnn(C5CCNC5)c4)c4[nH]ncc4n3)c2)c1 (stereo not drawn) [Example 465, 5-(3-(pyridin-3-yl)phenyl)-N-(1-(pyrrolidin-3-yl)-1H-pyrazol-4-yl)-1H-pyrazolo[4,3-d]pyrimidin-7-amine]
- IC50: 10 to 100 nM

Structure (SMILES): CN(C)C(=O)Cn1cc(Nc2nc(-c3cccc(-c4cccnc4)c3)nc3cn[nH]c23)cn1 [Example 466, N,N-dimethyl-2-(4-((5-(3-(pyridin-3-yl)phenyl)-1H-pyrazolo[4,3-d]pyrimidin-7-yl)amino)-1H-pyrazol-1-yl)acetamide]
- IC50: 10 to 100 nM

Structure (SMILES): COCC(COC)n1cc(Nc2nc(-c3cccc(-c4cccnc4)c3)nc3cn[nH]c23)cn1 [Example 467, N-(1-(1,3-dimethoxypropan-2-yl)-1H-pyrazol-4-yl)-5-(3-(pyridin-3-yl)phenyl)-1H-pyrazolo[4,3-d]pyrimidin-7-amine]
- IC50: 100 to 1000 nM

Structure (SMILES): CC(C)(C)N1CCC(n2cc(Nc3nc(-c4ccc5cn[nH]c5c4)nc4cn[nH]c34)cn2)CC1 [Example 468, N-(1-(1-(tert-butyl)piperidin-4-yl)-1H-pyrazol-4-yl)-5-(1H-indazol-6-yl)-1H-pyrazolo[4,3-d]pyrimidin-7-amine]
- IC50: < 10 nM

Structure (SMILES): CC(C)C(C)n1cc(Nc2nc(-c3ccc4cn[nH]c4c3)nc3cn[nH]c23)cn1 (stereo not drawn) [Example 469, 5-(1H-indazol-6-yl)-N-(1-(3-methylbutan-2-yl)-1H-pyrazol-4-yl)-1H-pyrazolo[4,3-d]pyrimidin-7-amine]
- IC50: 10 to 100 nM

Structure (SMILES): CN1C(=O)COc2ccc(Nc3nc(-c4ccc5cn[nH]c5c4)nc4cn[nH]c34)cc21 [Example 470, 6-((5-(1H-indazol-6-yl)-1H-pyrazolo[4,3-d]pyrimidin-7-yl)amino)-4-methyl-2H-benzo[b][1,4]oxazin-3(4H)-one]
- IC50: 100 to 1000 nM

Structure (SMILES): c1ccc(-n2cc(Nc3nc(-c4ccc5cn[nH]c5c4)nc4cn[nH]c34)cn2)nc1 [Example 472, 5-(1H-indazol-6-yl)-N-(1-(pyridin-2-yl)-1H-pyrazol-4-yl)-1H-pyrazolo[4,3-d]pyrimidin-7-amine]
- IC50: 100 to 1000 nM
